Results on eight compounds are retold here after patent publication US4500712A, “Ergoline derivatives” (Farmitalia Carlo Erba S.p.A., priority 1981, dated 1985).

Molecules are shown by their SMILES.

One data set has as its system restraint ulcers. The experiment in a line: Inhibition of restraint ulcers in rats (Bonfils et al.). Type of data set: in vivo, Sprague-Dawley male rats. The settings on record: 1 h; rat, oral, one hour before immobilization; read-out: Anticular activity (ED50, mg/kg p.o.). How it is done: The anti-ulcerogenic activity of the compounds of the present invention is shown, e.g., by the fact that they are active in the test of the inhibition of restraint ulcers in rats, according to the method of Bonfils et al., (Therapie, 1960, 15, 1096). According to this method the tested compounds were administered per os one hour before the immobilization.
Six Sprague-Dawley male rats (100-120 g), fasted 24 hours, were used for the experiment: a square flexible small-mesh wire netting was used for the immobilization and 4 hours after the immobilization the rats were sacrificed, their stomachs were removed and the lesions counted under a dissecting microscope.

In another data set the test system is gastric secretion. The experiment in a line: Gastric antisecretory activity in pylorus-ligated rats (Shay et al.). Type of data set: in vivo, Sprague-Dawley male rats. Conditions: 4 h; rat, intraduodenal, at the time of ligature; read-out: Antisecretory activity (ED50, mg/kg i.d.). How it is done:
According to this method the tested compounds were injected intraduodenally at the time of ligature. Six Sprague-Dawley male rats (110-130 g) were used for each group. Twenty-four hours before the test, the rats were deprived of food but the water supply was maintained. On the day of the operation, the pylorus was ligated under light ether anaesthesia. Four hours after the ligature, the rats were sacrificed. The stomach secretion was collected and centrifuged at 3500 r.p.m. for 10 minutes and the volume, less sediment, was determined. The amount of free hydrochloric acid in the gastric juice was determined by titration against 0.01N sodium hydroxide, to an end point of pH 7.

In data set [1] the test system is systolic blood pressure (S.B.P.) in SH-rats. Kind of data set: Systolic blood pressure in spontaneously hypertensive rats (indirect tail cuff method). The data set is classed as in vivo, spontaneously hypertensive rats (SHR, Kyoto). How it is done: (§1) Indirect measurements of systolic blood pressure were carried out on groups of 4 spontaneously hypertensive rats (SHR, Kyoto), 8-10 weeks of age, supplied by Charles Rives, Italy.
(§2) The animals were maintained in an environment of 36° C. for 10-15 minutes to allow pulse pressure to be recorded and then systolic blood pressure and heart rate were measured by indirect tail cuff method using a W+W, BP recorder, model 8005.
(§3) The compounds were given orally, suspended in 5% arabic gum, once a day for 4 consecutive days and measurements were carried out before beginning the treatment and 1 and 5 hours after dosing in both the first and fourth day of treatment.
(§4) Control animals received the vehicle only (0.2 ml/100 g b.w.). As reference standards, hydralazine (1-5 mg/kg p.o.) and α-methyl-dopa (30-100 mg/kg p.o.) were also tested.
(§5) Drug-induced changes in systolic blood pressure and heart rate were calculated as differences from the pretreatment values.

Data set [2] concerns heart rate (HR) in SH-rats. The experiment in a line: Heart rate in spontaneously hypertensive rats (indirect tail cuff method). How it is done:
as §1, §2, §3, §4, §5

The test system of data set [3] is syndrome induced by oxotremorine. The settings on record: general statement; cited from earlier work.
Where [4] appears, read: 5 mg/kg p.o., 1st day, 1 h post drug.
[5] abbreviates: 5 mg/kg p.o., 1st day, 5 h post drug.
The mark [6] stands for this setting: 5 mg/kg p.o., 4th day, 1 h post drug.
[7] abbreviates: 5 mg/kg p.o., 4th day, 5 h post drug.
Setting [8] is: 1 mg/kg p.o., 1st day, 1 h post drug.
Where [9] appears, read: 1 mg/kg p.o., 1st day, 5 h post drug.
Where [10] appears, read: 1 mg/kg p.o., 4th day, 1 h post drug.
[11] abbreviates: 1 mg/kg p.o., 4th day, 5 h post drug.

For the compound `CN1C[C@@H](CNC(=S)NC(=O)c2ccccc2)C[C@H]2c3cccc4[nH]cc(c34)C[C@H]21` [Ex 1, 6-Methyl-8α-(3-benzoyl-thioureidomethyl)-10β-ergoline], the ED50 in the data set with restraint ulcers turned out to be 4.2 mg/kg; with gastric secretion, 2.5 mg/kg.

In the case of `CN1C[C@H](CNC(=S)NC(=O)c2ccccc2)C[C@@H]2c3cccc4[nH]cc(c34)C[C@H]21` [Ex 2, 6-Methyl-8β-(3-benzoyl-thioureidomethyl)-ergoline], the ED50 with restraint ulcers was determined as 0.7 mg/kg; with gastric secretion it was 1.4 mg/kg.

With `CC(=O)NC(=O)NC[C@@H]1C[C@@H]2c3cccc4[nH]cc(c34)C[C@H]2N(C)C1` [Ex 9, 6-Methyl-8β-(3-acetyl-ureidomethyl)-ergoline], the “Changes in S.B.P” value in data set [1] (setting [4]) was -25 ΔmmHg; in data set [1] (setting [5]), -17 ΔmmHg; in data set [1] (setting [6]), -57 ΔmmHg; in data set [1] (setting [7]), -56 ΔmmHg.

Consider `CN1C[C@@H](CNC(=O)NC(=O)c2ccccc2)C[C@@H]2c3cccc4[nH]cc(c34)C[C@H]21` [Ex 10, 6-Methyl-8α-(3-benzoyl-ureidomethyl)-ergoline], for which the values for the ED50 in the data set on restraint ulcers and with gastric secretion were 7 mg/kg and 1 mg/kg, respectively.

Consider `CC(=O)NC(=O)NC[C@H]1C[C@@H]2c3cccc4[nH]cc(c34)C[C@H]2N(C)C1` [Ex 26, 6-Methyl-8α-(3-acetyl-ureidomethyl)-ergoline], for which the “Changes in S.B.P” value in data set [1] (setting [4]) is given as -28 ΔmmHg; in data set [1] (setting [5]), -60 ΔmmHg; in data set [1] (setting [6]), -45 ΔmmHg; in data set [1] (setting [7]), -36 ΔmmHg.

Turning to `NNc1nncc2ccccc12` [Hydralazine, hydralazine], the “Changes in S.B.P” value in data set [1] (setting [8]) is given as -5 ΔmmHg; in data set [1] (setting [9]), -15 ΔmmHg; in data set [1] (setting [10]) it was -5 ΔmmHg; in data set [1] (setting [11]), 0 ΔmmHg; in data set [1] (setting [4]), -40 ΔmmHg; in data set [1] (setting [5]), -20 ΔmmHg. Also, the “Changes in S.B.P” value in data set [1] (setting [6]) was -20 ΔmmHg; in data set [1] (setting [7]) it was -7 ΔmmHg. The “Changes in HR” value in data set [2] (setting [8]) was “+30 beats/min”; in data set [2] (setting [9]) it was “+35 beats/min”; in data set [2] (setting [10]), “+25 beats/min”; in data set [2] (setting [11]), “+15 beats/min”; in data set [2] (setting [4]), “+40 beats/min”; in data set [2] (setting [5]), “+45 beats/min”. Moreover, the “Changes in HR” value was “+18 beats/min” in data set [2] (setting [6]) and “+15 beats/min” in data set [2] (setting [7]). For the same compound, in data set [2] (Table 3, SH-rats), the “effects on heart rate (in words)” value was “increase HR”.

As to `CN1[C@@H]2CC[C@H]1C[C@@H](OC(=O)C(CO)c1ccccc1)C2` (some centres unmarked) [atropine], the “anti-cholinergic activity of known agent” value in data set [3] was “remarkable but undesired anti-cholinergic activity”.

Regarding `C[C@](N)(Cc1ccc(O)c(O)c1)C(=O)O` [α-methyl-DOPA, α-methyl-dopa], the “Changes in S.B.P” value in data set [1] (30 mg/kg p.o., 1st day, 1 h post drug) is -10 ΔmmHg; in data set [1] (30 mg/kg p.o., 1st day, 5 h post drug) it was -20 ΔmmHg; in data set [1] (30 mg/kg p.o., 4th day, 1 h post drug), -10 ΔmmHg; in data set [1] (30 mg/kg p.o., 4th day, 5 h post drug), 0 ΔmmHg; in data set [1] (100 mg/kg p.o., 1st day, 1 h post drug) it was -10 ΔmmHg; in data set [1] (100 mg/kg p.o., 1st day, 5 h post drug), -25 ΔmmHg. The “Changes in S.B.P” value in data set [1] (100 mg/kg p.o., 4th day, 1 h post drug) is -20 ΔmmHg; in data set [1] (100 mg/kg p.o., 4th day, 5 h post drug) it was -25 ΔmmHg. Moreover, the “effects on heart rate (in words)” value in data set [2] (rat, in vivo) is “increase HR”.
